# Reference: US20260335229A1, “NOVEL COMPOSITIONS” (priority 2025, published 2026)
# Structures can show the parent of a compound that is named as a salt.
# How the values were obtained:
# [1] = Solubility observed on preparing formulations; assay type: physicochemical; details: pH 5.5 versus pH 5.0
# [2] = 21 °C and standard pressure; cited from earlier work
# [3] = test system: Gram-positive bacteria; details: background statement; cited from earlier work
smiles,measurement,setting,value
CN[C@H]1C(=O)N[C@@H]2Cc3ccc(cc3)Oc3cc4cc(c3O[C@@H]3O[C@H](C(=O)O)[C@@H](O)[C@H](O)[C@H]3NC(=O)CCCCCCCCC(C)C)Oc3ccc(cc3Cl)[C@@H](O)[C@@H]3NC(=O)[C@H](NC(=O)[C@@H]4NC(=O)[C@@H](NC2=O)c2cc(cc(O)c2Cl)Oc2cc1ccc2O)c1ccc(O)c(c1)-c1c(O[C@H]2O[C@H](CO)[C@@H](O)[C@H](O)[C@@H]2O)cc(O)cc1[C@@H](C(=O)NCCCN(C)C)NC3=O [dalbavancin hydrochloride],Solubility,[1],reduced solubility
CC(O)C(=O)O (stereo not drawn) [lactic acid],pKa,[2],3.7
CN[C@H]1C(=O)N[C@@H]2Cc3ccc(cc3)Oc3cc4cc(c3O[C@@H]3O[C@H](C(=O)O)[C@@H](O)[C@H](O)[C@H]3NC(=O)CCCCCCCCC(C)C)Oc3ccc(cc3Cl)[C@@H](O)[C@@H]3NC(=O)[C@H](NC(=O)[C@@H]4NC(=O)[C@@H](NC2=O)c2cc(cc(O)c2Cl)Oc2cc1ccc2O)c1ccc(O)c(c1)-c1c(O[C@H]2O[C@H](CO)[C@@H](O)[C@H](O)[C@@H]2O)cc(O)cc1[C@@H](C(=O)NCCCN(C)C)NC3=O [Dalbavancin],Antibiotic activity,[3],strong antibiotic activity
